Test results reported in US9371265B2, “Compositions and methods related to inhibitors of JAK kinase” (EP PHARMA, INC., priority 2012, dated 2016).

How the values were obtained:
[1] = tested on: IL-3/JAK2-dependent BaF/3 cells; assay: BaF/3 cell viability (MTS); assay type: cell-based, murine; conditions: identical concentrations of EP009 (up to 10 μM), 72 hours
Method: FIGS. 2A-2F. […] (B) Kit225 or (C) BaF/3 cells cultured in the presence of IL-2 or IL-3, respectively, were treated with vehicle (PBS; lane a) or increasing amounts of EP009 (0-50 μM; lanes b-h) for 12 hours. Cells were then lysed, clarified, and immunoprecipitated (IP) with anti-JAK3 (α-JAK3) or anti-JAK2 (α-JAK2), and subjected to Western blot (WB) analysis with anti-phosphotyrosine (α-pY). Blots were stripped and reprobed with corresponding antibody to verify equivalent protein loading. (D) Immunopurified JAK3 was subjected to in vitro autokinase analysis after treatment with vehicle (DMSO; lanes a and b) or ascending concentrations of EP009 (0-10 μM; lanes c-f) for 1 hour at room temperature. […] (E) Kit225 or BaF/3 cells were cultured with increasing amounts of EP009 (0-10 μM) for 72 hours and cell viability measured with the MTS tetrazolium salt assay. Values represent mean absorbance (OD490-OD650 nm) normalized to vehicle (PBS) treated control cells, while error bars represent the standard deviation (n=3). (F) HEK293, HEPG2, or naïve primary human PBMCs were cultured with increasing amounts of EP009 (0-10 μM) for 72 hours and cell viability measured with the MTS tetrazolium salt assay. Values represent mean absorbance (OD490-OD650 nm) normalized to vehicle (PBS) treated control cells, while error bars represent the standard deviation (n=3). […]

[2] = biological target: ABL1(E255K)-phosphorylated (Homo sapiens, UniProt P00519, E255K); assay: Kinase panel: ABL1(E255K)-phosphorylated; assay type: biochemical; conditions: 10 μM EP009
Chain of ABL1(E255K)-phosphorylated (P00519 whole entry E255K): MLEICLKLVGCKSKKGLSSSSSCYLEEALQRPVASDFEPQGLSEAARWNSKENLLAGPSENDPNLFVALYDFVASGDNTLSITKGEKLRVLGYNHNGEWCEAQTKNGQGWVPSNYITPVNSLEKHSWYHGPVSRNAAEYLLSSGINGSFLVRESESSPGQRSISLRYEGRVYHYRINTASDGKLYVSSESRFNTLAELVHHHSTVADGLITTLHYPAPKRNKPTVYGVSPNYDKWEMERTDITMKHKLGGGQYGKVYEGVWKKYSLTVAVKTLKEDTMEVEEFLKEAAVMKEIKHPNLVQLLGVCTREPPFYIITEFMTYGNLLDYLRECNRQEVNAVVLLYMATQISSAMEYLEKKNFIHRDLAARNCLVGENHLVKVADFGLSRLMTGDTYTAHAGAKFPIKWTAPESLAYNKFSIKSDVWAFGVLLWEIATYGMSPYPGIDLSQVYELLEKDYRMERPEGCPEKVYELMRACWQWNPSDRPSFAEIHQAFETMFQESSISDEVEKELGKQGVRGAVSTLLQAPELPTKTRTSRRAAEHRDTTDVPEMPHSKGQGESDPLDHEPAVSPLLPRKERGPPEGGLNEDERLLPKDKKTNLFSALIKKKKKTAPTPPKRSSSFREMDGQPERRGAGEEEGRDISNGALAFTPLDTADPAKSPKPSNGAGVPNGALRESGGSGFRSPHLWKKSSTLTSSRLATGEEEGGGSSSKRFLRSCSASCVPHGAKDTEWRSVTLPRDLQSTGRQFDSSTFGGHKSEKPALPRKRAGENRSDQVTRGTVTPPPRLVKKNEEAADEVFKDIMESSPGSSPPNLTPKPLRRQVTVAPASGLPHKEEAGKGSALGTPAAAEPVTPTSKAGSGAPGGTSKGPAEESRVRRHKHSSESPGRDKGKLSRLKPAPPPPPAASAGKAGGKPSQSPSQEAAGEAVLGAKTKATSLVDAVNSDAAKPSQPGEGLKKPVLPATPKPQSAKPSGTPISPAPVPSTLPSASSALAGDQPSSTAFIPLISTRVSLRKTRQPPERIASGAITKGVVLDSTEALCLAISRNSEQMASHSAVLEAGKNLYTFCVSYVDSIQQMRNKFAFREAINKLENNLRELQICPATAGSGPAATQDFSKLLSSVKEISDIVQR
Method: (§1) Achieving JAK3 selectivity remains a significant challenge in the development of new small molecules for the treatment of cancer and immune-derived diseases. As such, the inventors employed cell-based screening assays of small-molecule libraries based upon the chemical scaffold of the established JAK3 inhibitor NC1153 (Stepkowski et al., J Immunol. (2005), 175(7):4236-4246) EP009 (FIG. 2A) was selected as a lead compound due to improved intrinsic stability (>95% purity in various solvents at 37° C. for 24 hours; FIG. 3) and high-degree of JAK3 selectivity. To test JAK3 versus JAK2 specificity of EP009, the IL-2/JAK3-dependent Kit225, and IL-3/JAK2-dependent BaF/3 cell lines were used. Kit225 and BaF/3 cells growing in the presence of IL-2 or IL-3, respectively, were treated with ascending concentrations of EP009 for 12 hours and cellular JAK3 and JAK2 tyrosine phosphorylation levels detected by Western blot analysis (FIGS. 2B and 2C). Following densitometric analysis, EP009 was determined to dose-dependently reduce IL-2-mediated JAK3 tyrosine phosphorylation with a cellular 50% inhibitory concentration (IC50) between 10 and 20 μM (FIG. 2B). […] To globally evaluate specificity, the inhibitory activity of EP009 was measured against a panel of protein kinases distributed throughout the kinome using the scanEDGE profiling service (KINOMEscan). […]

BMPR2 = BMPR2 (Homo sapiens, UniProt Q13873); assay: Kinase panel: BMPR2; assay type: biochemical; conditions: 10 μM EP009
Chain of BMPR2 (Q13873 27-1038): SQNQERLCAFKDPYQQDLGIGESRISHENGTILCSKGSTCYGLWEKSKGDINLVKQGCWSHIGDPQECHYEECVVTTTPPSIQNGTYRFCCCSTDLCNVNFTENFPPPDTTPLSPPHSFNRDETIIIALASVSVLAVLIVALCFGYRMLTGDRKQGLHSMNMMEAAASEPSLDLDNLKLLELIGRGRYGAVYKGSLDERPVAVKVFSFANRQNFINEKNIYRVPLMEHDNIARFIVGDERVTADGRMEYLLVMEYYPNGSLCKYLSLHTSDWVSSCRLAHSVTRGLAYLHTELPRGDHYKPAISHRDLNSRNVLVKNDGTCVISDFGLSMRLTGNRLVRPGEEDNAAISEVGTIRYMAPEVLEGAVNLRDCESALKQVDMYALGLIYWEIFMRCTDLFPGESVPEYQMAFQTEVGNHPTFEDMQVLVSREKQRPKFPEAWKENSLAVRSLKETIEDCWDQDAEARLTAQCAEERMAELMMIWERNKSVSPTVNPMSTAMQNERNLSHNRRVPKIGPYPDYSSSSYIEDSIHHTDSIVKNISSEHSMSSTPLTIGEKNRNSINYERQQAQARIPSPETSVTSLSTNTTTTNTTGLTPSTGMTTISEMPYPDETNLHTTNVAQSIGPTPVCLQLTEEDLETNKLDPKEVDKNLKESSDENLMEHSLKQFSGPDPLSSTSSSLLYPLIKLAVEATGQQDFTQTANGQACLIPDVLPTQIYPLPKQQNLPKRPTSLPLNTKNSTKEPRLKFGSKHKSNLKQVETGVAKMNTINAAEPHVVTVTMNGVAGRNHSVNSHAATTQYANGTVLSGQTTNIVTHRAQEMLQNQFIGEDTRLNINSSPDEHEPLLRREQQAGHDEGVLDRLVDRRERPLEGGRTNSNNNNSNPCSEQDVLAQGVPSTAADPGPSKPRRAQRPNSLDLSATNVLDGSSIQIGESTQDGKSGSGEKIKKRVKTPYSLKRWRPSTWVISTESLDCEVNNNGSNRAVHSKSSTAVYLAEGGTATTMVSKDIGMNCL
Method: as §1

CHEK1 = CHEK1 (Homo sapiens, UniProt O14757); assay: Kinase panel: CHEK1; assay type: biochemical; conditions: 10 μM EP009
Chain of CHEK1 (O14757 whole entry): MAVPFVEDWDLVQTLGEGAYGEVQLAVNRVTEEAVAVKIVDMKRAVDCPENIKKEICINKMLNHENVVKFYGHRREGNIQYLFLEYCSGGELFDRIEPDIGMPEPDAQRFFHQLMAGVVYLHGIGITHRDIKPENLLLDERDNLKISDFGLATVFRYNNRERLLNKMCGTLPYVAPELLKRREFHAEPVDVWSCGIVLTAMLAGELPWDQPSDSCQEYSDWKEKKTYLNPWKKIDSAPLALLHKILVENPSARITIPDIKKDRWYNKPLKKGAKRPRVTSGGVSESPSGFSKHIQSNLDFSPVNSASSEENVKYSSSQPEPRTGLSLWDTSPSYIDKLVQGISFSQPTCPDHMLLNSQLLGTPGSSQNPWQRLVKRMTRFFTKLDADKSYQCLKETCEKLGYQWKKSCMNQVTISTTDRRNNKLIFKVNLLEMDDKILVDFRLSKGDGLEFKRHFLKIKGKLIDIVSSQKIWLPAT
Method: as §1

LKB1 = LKB1 (Homo sapiens, UniProt Q15831); assay: Kinase panel: LKB1; assay type: biochemical; conditions: 10 μM EP009
Chain of LKB1 (Q15831 whole entry): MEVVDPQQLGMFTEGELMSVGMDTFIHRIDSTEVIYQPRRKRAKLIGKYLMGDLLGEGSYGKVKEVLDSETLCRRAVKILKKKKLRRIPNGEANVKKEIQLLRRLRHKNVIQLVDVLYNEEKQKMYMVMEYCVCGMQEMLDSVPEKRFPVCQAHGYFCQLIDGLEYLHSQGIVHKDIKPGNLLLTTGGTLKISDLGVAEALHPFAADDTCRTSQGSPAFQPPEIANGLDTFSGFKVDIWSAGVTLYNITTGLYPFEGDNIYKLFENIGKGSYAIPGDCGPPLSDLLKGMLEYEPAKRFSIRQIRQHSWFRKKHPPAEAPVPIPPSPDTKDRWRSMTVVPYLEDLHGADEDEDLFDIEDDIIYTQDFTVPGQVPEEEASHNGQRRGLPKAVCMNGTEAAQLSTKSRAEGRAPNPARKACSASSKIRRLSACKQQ
Method: as §1

For `C=C1CCCCCCCCCC(CO)C1=O` (centres unmarked) [EP009, 2-(Hydroxymethyl)-12-methylenecyclododecanone], the “effect on BaF/3 cell viability” value [1] was “no effect”, the “Kinase Activity (% of Control)” value [2] was 64 % of Control and the “Kinase Activity (% of Control)” value (BMPR2) was 75 % of Control. The “Kinase Activity (% of Control)” value (CHEK1) was 100 % of Control and the “Kinase Activity (% of Control)” value (LKB1) was 100 % of Control.
